From ChEMBL document CHEMBL5257030, “Antioxidant, anticancer activities and mechanistic studies of the flavone glycoside diosmin and its oxidovanadium(IV) complex. Interactions with bovine serum albumin” (Bioorg Med Chem, 2016)
Calls of active or inactive are those of the source. The rule behind the calls is not given here.

What was measured:
A549 [1] = assay: Antiproliferative activity against human A549 cells after 72 hrs by Alamar blue assay; assay type: functional, cell-based; conditions: A549, 72 h
Albumin [2] = target: T1, Albumin (Bos taurus, UniProt P02769); assay: Binding affinity to bovine serum albumin assessed as Stem-Volmer quenching constant at 310 K after 1 hr by luminescence spectrometric analysis; conditions: cattle
T1 sequence (P02769 whole entry): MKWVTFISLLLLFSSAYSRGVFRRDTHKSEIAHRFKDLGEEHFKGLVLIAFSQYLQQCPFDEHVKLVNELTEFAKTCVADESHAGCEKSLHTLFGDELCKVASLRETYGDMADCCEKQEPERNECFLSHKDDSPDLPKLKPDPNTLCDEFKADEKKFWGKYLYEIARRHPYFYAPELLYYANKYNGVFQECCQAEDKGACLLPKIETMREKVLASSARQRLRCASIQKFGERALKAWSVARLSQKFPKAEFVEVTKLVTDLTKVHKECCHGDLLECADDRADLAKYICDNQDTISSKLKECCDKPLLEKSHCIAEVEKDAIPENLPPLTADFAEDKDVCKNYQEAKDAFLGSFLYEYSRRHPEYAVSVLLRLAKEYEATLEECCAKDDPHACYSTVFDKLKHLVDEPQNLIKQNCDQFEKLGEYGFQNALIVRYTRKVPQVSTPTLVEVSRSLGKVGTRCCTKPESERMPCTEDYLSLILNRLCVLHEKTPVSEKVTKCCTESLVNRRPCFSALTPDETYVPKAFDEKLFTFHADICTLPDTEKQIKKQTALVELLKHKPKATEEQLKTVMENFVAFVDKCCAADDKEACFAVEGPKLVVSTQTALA

Albumin [3] = target: T1, Albumin; assay: Binding affinity to bovine serum albumin assessed as Stem-Volmer quenching constant at 303 K after 1 hr by luminescence spectrometric analysis; conditions: cattle
Albumin [4] = target: T1, Albumin; assay: Binding affinity to bovine serum albumin assessed as change in enthalpy; conditions: cattle
SK-BR-3 [5] = assay: Cytotoxicity against human SK-BR-3 cells assessed as ROS production at 10 uM after 24 hrs by CMH2DCFDA probe-based fluorescence assay relative to control; assay type: functional
[6] = Antioxidant activity assessed as reduction in ascorbate-iron-H2O2-mediated hydroxy radical generation at 100 uM after 30 mins by thiobarbituric acid method; assay type: functional
T47D [7] = assay: Cytotoxicity against human T47D cells assessed as caspase3/7 activation at 10 uM after 24 hrs by fluorescence assay relative to control; assay type: functional
A549 [8] = assay: Cytotoxicity in human A549 cells assessed as increase in DHR123 oxidation to form rhodamine 123 measured after 30 mins by fluorescence spectroscopy; assay type: functional, cell-based
T47D [9] = assay: Cytotoxicity against human T47D cells assessed as disruption of mitochondrial membrane potential by measuring TMRM level in mitochondria at 10 uM after 24 hrs by fluorescence assay relative to control; assay type: functional
MDA-MB-231 [10] = assay: Antiproliferative activity against human MDA-MB-231 cells assessed as inhibition of cell growth measured after 24 hrs by MTT assay; assay type: functional, cell-based; conditions: MDA-MB-231, 24 h
Albumin [11] = target: T1, Albumin; assay: Binding affinity to bovine serum albumin assessed as free energy change at 298 K; conditions: cattle
Albumin [12] = target: T1, Albumin; assay: Binding affinity to bovine serum albumin assessed as association constant at 310 K after 1 hr by luminescence spectrometric analysis; conditions: cattle
SK-BR-3 [13] = assay: Cytotoxicity against human SK-BR-3 cells assessed as caspase3/7 activation at 10 uM after 24 hrs by fluorescence assay relative to control; assay type: functional
Albumin [14] = target: T1, Albumin; assay: Binding affinity to bovine serum albumin assessed as quenching rate constant at 310 K after 1 hr by luminescence spectrometric analysis; conditions: cattle
A549 [15] = assay: Cytotoxicity against human A549 cells assessed as reduction in cell viability up to 100 uM measured after 24 hrs by crystal violet staining based assay; assay type: functional
Albumin [16] = target: T1, Albumin; assay: Binding affinity to bovine serum albumin assessed as quenching rate constant at 298 K after 1 hr by luminescence spectrometric analysis; conditions: cattle
T47D [17] = assay: Antiproliferative activity against human T47D cells assessed as inhibition of cell growth measured after 24 hrs by MTT assay; assay type: functional, cell-based
T47D [18] = assay: Cytotoxicity against human T47D cells assessed as ROS production at 10 uM after 24 hrs by CMH2DCFDA probe-based fluorescence assay relative to control; assay type: functional
Albumin [19] = target: T1, Albumin; assay: Binding affinity to bovine serum albumin assessed as quenching rate constant at 303 K after 1 hr by luminescence spectrometric analysis; conditions: cattle
Albumin [20] = target: T1, Albumin; assay: Binding affinity to bovine serum albumin assessed as association constant at 298 K after 1 hr by luminescence spectrometric analysis; conditions: cattle
SK-BR-3 [21] = assay: Cytotoxicity against human SK-BR-3 cells assessed as disruption of mitochondrial membrane potential by measuring TMRM level in mitochondria at 10 uM after 24 hrs by fluorescence assay relative to control; assay type: functional
MDA-MB-231 [22] = assay: Cytotoxicity against human MDA-MB-231 cells assessed as ROS production at 10 uM after 24 hrs by CMH2DCFDA probe-based fluorescence assay relative to control; assay type: functional
MDA-MB-231 [23] = assay: Cytotoxicity against human MDA-MB-231 cells assessed as caspase3/7 activation at 10 uM after 24 hrs by fluorescence assay relative to control; assay type: functional
Albumin [24] = target: T1, Albumin; assay: Binding affinity to bovine serum albumin assessed as free energy change at 303 K; conditions: cattle
Albumin [25] = target: T1, Albumin; assay: Binding affinity to bovine serum albumin assessed as association constant at 303 K after 1 hr by luminescence spectrometric analysis; conditions: cattle
[26] = Antioxidant activity assessed as reduction in PMS induced superoxide anion activity preincubated for 15 mins followed by PMS addition and measured after 5 mins by NBT assay; assay type: functional; conditions: time 20.0 min
Albumin [27] = target: T1, Albumin; assay: Binding affinity to bovine serum albumin assessed as Stem-Volmer quenching constant at 298 K after 1 hr by luminescence spectrometric analysis; conditions: cattle
MDA-MB-231 [28] = assay: Cytotoxicity against human MDA-MB-231 cells assessed as disruption of mitochondrial membrane potential by measuring TMRM level in mitochondria at 10 uM after 24 hrs by fluorescence assay relative to control; assay type: functional
Albumin [29] = target: T1, Albumin; assay: Binding affinity to bovine serum albumin assessed as free energy change at 310 K; conditions: cattle
[30] = Antioxidant activity assessed as DPPH radical scavenging activity at 100 uM incubated for 60 mins in dark relative to control; assay type: functional
SK-BR-3 [31] = assay: Antiproliferative activity against human SK-BR-3 cells assessed as inhibition of cell growth measured after 24 hrs by MTT assay; assay type: functional, cell-based; conditions: SK-BR-3, 24 h
[32] = Antioxidant activity assessed as delay in time of AAPH-induced pyranine consumption at 100 uM by spectrophotometric analysis; assay type: functional

IC50 (A549 [1]): > 40 µM | KSV (Albumin [2]): 1.18 10^4L/mol | KSV (Albumin [3]): 1.95 10^4L/mol | deltaH (Albumin [4]): -35.057 kcal/mol | IC50 (MDA-MB-231 [10]): 70 µM | deltaG (Albumin [11]): -5.863 kcal/mol | Ka (Albumin [12]): 0.19 10^4L/mol | Kq (Albumin [14]): 1.18 10^12L/mol/s | Kq (Albumin [16]): 3.08 10^12L/mol/s | IC50 (T47D [17]): > 100 µM | Kq (Albumin [19]): 1.95 10^12L/mol/s | Ka (Albumin [20]): 1.84 10^4L/mol | deltaG (Albumin [24]): -5.373 kcal/mol | Ka (Albumin [25]): 0.88 10^4L/mol | KSV (Albumin [27]): 3.08 10^4L/mol | deltaG (Albumin [29]): -4.687 kcal/mol | IC50 (SK-BR-3 [31]): > 100 µM
Structure (SMILES): COc1ccc(-c2cc(=O)c3c(O)cc(O[C@@H]4O[C@H](CO[C@@H]5O[C@@H](C)[C@H](O)[C@@H](O)[C@H]5O)[C@@H](O)[C@H](O)[C@H]4O)cc3o2)cc1O [DIOSMIN]
Activity (SK-BR-3 [5]): 104% | Activity [6]: inactive | Activity (T47D [7]): 99% | Activity (A549 [8]): inactive | Activity (T47D [9]): 96% | Activity (SK-BR-3 [13]): 116% | Activity (A549 [15]): inactive | Activity (T47D [18]): 105% | Activity (SK-BR-3 [21]): 78% | Activity (MDA-MB-231 [22]): 110% | Activity (MDA-MB-231 [23]): 106% | Activity [26]: inactive | Activity (MDA-MB-231 [28]): 104% | Activity [30]: 14% | TIME [32]: 0.0233 h
